Measured values: patent US20230277452A1, “COMPOSITIONS, DEVICES AND METHODS FOR TREATING NASAL, OTIC AND OTHER TISSUE INFECTION AND/OR INFLAMMATION” (priority 2020, published 2023)

Tests used:
in vivo = test: in vivo
Method: The control article was 0.9% saline.
Blood was collected (via a jugular vein cannula inserted during surgery) during the 10-day post-dose phase for pharmacokinetics, hematology, clinical chemistry, glucose, and morning cortisol analysis.
Because of the variability in the volume of the sinus in sheep, the total volume varied from 5 to 15 mL. Doses calculated by body weight and body surface area (BSA) are also shown.

[1] = Recovery of force-degraded fluticasone propionate spiked into placebo and of active cream, HPLC; type: physicochemical
[2] = Recovery of force-degraded MFM spiked into placebo cream and of active cream (0.1% MFM), HPLC; type: physicochemical; details: for Peak Area MFM / Peak Area RRT = 0.61 / Peak Area RRT = 0.71 / Peak Area RRT = 0.79 / Peak Area RRT = 0.87 / Peak Area RRT = 0.96 / Peak Area RRT = 1.07 / Peak Area RRT = 1.12 / Total MFM-Related Area: Spiked into placebo
Method: MFM neat and degraded materials were spiked into placebo cream (lot #2020-11-01) to investigate potential partitioning effects and peak interferences and to compare spiked and active cream samples by the procedure in Table 50 with the exception that for acid, base and peroxide degradations, the additions of HCl, NaOH and peroxide were calculated accordingly.
Percent recovery of Force-Degraded Materials Spiked into Placebo is provided in Table 51 below while recovery of active cream formulation (0.1% MFM) is provided in Table 52 below.

[3] = Forced degradation of neat mometasone furoate monohydrate, percent recovery and degradant peaks by HPLC; type: physicochemical; set-up: key to Degradant peak, RRT 0.61 with respect to MFM / Degradant peak, RRT 0.71 with respect to MFM / Degradant peak, RRT 0.79 with respect to MFM / Degradant peak, RRT 0.87* with respect to MFM / Degradant peak, RRT 1.07 with respect to MFM / Degradant peak, RRT 1.12* with respect to MFM / Degradant peak, RRT 0.96* with respect to MFM: ≥0.05% Peak Area; detected above the 0.05% cutoff; “—” indicates no peak; details: for Degradant peak, RRT 0.87* with respect to MFM / Degradant peak, RRT 0.96* with respect to MFM / Degradant peak, RRT 1.12* with respect to MFM: related substance; for Actual Amount: neat MFM
Method: Degradation and impurity analysis of the creams was performed using HPLC. The following parameters were used for the analysis of mometasone furoate monohydrate.
Neat mometasone furoate monohydrate (MFM) material was degraded and analyzed for potential chromatographic interference. Briefly, neat MFM was exposed to various conditions to induce degradation including heat (60° C./5 days), light (6 inches away from a white bench light for 5 days), acid (0.1N HCl for 1 hour followed by neutralization with 0.1N NaOH), base (0.1N NaOH for 1 hour followed by neutralization with 0.1N HCl), and oxidation (3% H2O2 for 1 hour). All samples including the degraded samples, control samples (dissolved in HPLC-grade methanol), and the reference solution were analyzed.
Percent recovery is provided in Table 48 below for each condition.
Table 49 below provides the Relative Retention Times (RRTs) and detection ≥0.05% for the samples.

[4] = degraded neat material, 0.1N HC1
[5] = degraded neat material, 0.1N NaOH
[6] = degraded neat material, 3% H2O2
[7] = degraded neat material, 60° C. for 5 days
[8] = degraded neat material, White light for 5 days

CCC(=O)O[C@]1(C(=O)CO)[C@@H](C)C[C@H]2[C@@H]3CCC4=CC(=O)C=C[C@]4(C)[C@@]3(F)[C@@H](O)C[C@@]21C [Betamethasone 17-propionate, betamethasone 17-propionate]
plasma levels detected through (in vivo; in vivo): 3 days post-dose | Tmax (in vivo; sheep plasma, intra-sinus 0.05% betamethasone dipropionate cream, median (range), n = 6): 0.5 (0.5-2) hr | AUCinf (in vivo; sheep, in vivo): 59.3 ± 44.8 ng·h/mL | AUClast (in vivo; sheep, in vivo): 58.3 ± 44.7 ng·h/mL | Apparent half-life (in vivo; sheep, in vivo): 9.5 ± 2.2 h | Cmax (in vivo; sheep, in vivo): 8,279 ± 3,376 pg/ml

CCC(=O)O[C@]1(C(=O)SCF)[C@H](C)C[C@H]2[C@@H]3C[C@H](F)C4=CC(=O)C=C[C@]4(C)[C@@]3(F)[C@@H](O)C[C@@]21C [Fluticasone Propionate 0.005%]
Difference with Placebo (neat vs spiked recovery) ([1]; 0.1N HC1 (1 hour)): 6.03% | Difference with Placebo (neat vs spiked recovery) ([1]; 0.1N NaOH (1 hour)): 0.19% | Difference with Placebo (neat vs spiked recovery) ([1]; 3% H2O2 (1 hour)): 4.03% | Difference with Placebo (neat vs spiked recovery) ([1]; 60° C. (3 days)): 1.09% | Difference with Placebo (neat vs spiked recovery) ([1]; Control (undegraded FP, kept at 4 C.)): 0.2-1.1% ^ | Difference with Placebo (neat vs spiked recovery) ([1]; White light (3 days)): 2.71%

C[C@@H]1C[C@H]2[C@@H]3CCC4=CC(=O)C=C[C@]4(C)[C@@]3(Cl)[C@@H](O)C[C@]2(C)[C@@]1(OC(=O)c1ccco1)C(=O)CCl [MFM, mometasone furoate monohydrate]
degradation due to the cream making process ([2]; 0.1% MFM cream, HPLC): no apparent degradation | Peak Area MFM ([2]; Acid): 116.720 | Peak Area RRT = 0.61 ([2]; Acid): no peaks | Peak Area RRT = 0.71 ([2]; Acid): no peaks | Peak Area RRT = 0.79 ([2]; Acid): no peaks | Peak Area RRT = 0.87 ([2]; Acid): no peaks | Peak Area RRT = 0.96 ([2]; Acid): 2.964 | Peak Area RRT = 1.07 ([2]; Acid): 0.05 | Peak Area RRT = 1.12 ([2]; Acid): 0.353 | Total MFM-Related Area ([2]; Acid): 120.087 | Peak Area MFM ([2]; Base): 2.991 | Peak Area RRT = 0.61 ([2]; Base): 0.097 | Peak Area RRT = 0.71 ([2]; Base): 0.143 | Peak Area RRT = 0.79 ([2]; Base): 0.433 | Peak Area RRT = 0.87 ([2]; Base): 5.187 | Peak Area RRT = 0.96 ([2]; Base): 14.967 | Peak Area RRT = 1.07 ([2]; Base): 55.374 | Peak Area RRT = 1.12 ([2]; Base): 10.016 | Total MFM-Related Area ([2]; Base): 89.208 | Peak Area MFM ([2]; Control): 125.120 | Peak Area RRT = 0.61 ([2]; Control): no peaks | Peak Area RRT = 0.71 ([2]; Control): no peaks | Peak Area RRT = 0.79 ([2]; Control): no peaks | Peak Area RRT = 0.87 ([2]; Control): no peaks | Peak Area RRT = 0.96 ([2]; Control): 0.171 | Peak Area RRT = 1.07 ([2]; Control): no peaks | Peak Area RRT = 1.12 ([2]; Control): no peaks | Total MFM-Related Area ([2]; Control): 125.291 | Peak Area MFM ([2]; Heat): 122.536 | Peak Area RRT = 0.61 ([2]; Heat): no peaks | Peak Area RRT = 0.71 ([2]; Heat): no peaks | Peak Area RRT = 0.79 ([2]; Heat): no peaks | Peak Area RRT = 0.87 ([2]; Heat): no peaks | Peak Area RRT = 0.96 ([2]; Heat): 0.161 | Peak Area RRT = 1.07 ([2]; Heat): no peaks | Peak Area RRT = 1.12 ([2]; Heat): no peaks | Total MFM-Related Area ([2]; Heat): 122.697 | Peak Area MFM ([2]; Light): 123.671 | Peak Area RRT = 0.61 ([2]; Light): no peaks | Peak Area RRT = 0.71 ([2]; Light): no peaks | Peak Area RRT = 0.79 ([2]; Light): no peaks | Peak Area RRT = 0.87 ([2]; Light): no peaks | Peak Area RRT = 0.96 ([2]; Light): 0.152 | Peak Area RRT = 1.07 ([2]; Light): no peaks | Peak Area RRT = 1.12 ([2]; Light): no peaks | Total MFM-Related Area ([2]; Light): 123.823 | Peak Area MFM ([2]; Peroxide): 128.187 | Peak Area RRT = 0.61 ([2]; Peroxide): no peaks | Peak Area RRT = 0.71 ([2]; Peroxide): no peaks | Peak Area RRT = 0.79 ([2]; Peroxide): no peaks | Peak Area RRT = 0.87 ([2]; Peroxide): no peaks | Peak Area RRT = 0.96 ([2]; Peroxide): 0.176 | Peak Area RRT = 1.07 ([2]; Peroxide): no peaks | Peak Area RRT = 1.12 ([2]; Peroxide): no peaks | Total MFM-Related Area ([2]; Peroxide): 128.363 | Degradant peak, RRT 0.61 with respect to MFM [3, 4]: detected (≥0.05% Peak Area; detected above the 0.05% cutoff) | Degradant peak, RRT 0.71 with respect to MFM [3, 4]: detected (≥0.05% Peak Area; detected above the 0.05% cutoff) | Degradant peak, RRT 0.79 with respect to MFM [3, 4]: detected (≥0.05% Peak Area; detected above the 0.05% cutoff) | Degradant peak, RRT 1.07 with respect to MFM [3, 4]: detected (≥0.05% Peak Area; detected above the 0.05% cutoff) | Degradant peak, RRT 0.87* with respect to MFM [3, 4]: detected (≥0.05% Peak Area; detected above the 0.05% cutoff) | Degradant peak, RRT 0.96* with respect to MFM [3, 4]: detected (≥0.05% Peak Area; detected above the 0.05% cutoff) | Degradant peak, RRT 1.12* with respect to MFM [3, 4]: detected (≥0.05% Peak Area; detected above the 0.05% cutoff) | Degradant peak, RRT 0.61 with respect to MFM [3, 5]: — | Degradant peak, RRT 0.71 with respect to MFM [3, 5]: — | Degradant peak, RRT 0.79 with respect to MFM [3, 5]: — | Degradant peak, RRT 1.07 with respect to MFM [3, 5]: detected (≥0.05% Peak Area; detected above the 0.05% cutoff) | Degradant peak, RRT 0.87* with respect to MFM [3, 5]: — | Degradant peak, RRT 0.96* with respect to MFM [3, 5]: detected (≥0.05% Peak Area; detected above the 0.05% cutoff) | Degradant peak, RRT 1.12* with respect to MFM [3, 5]: detected (≥0.05% Peak Area; detected above the 0.05% cutoff) | Degradant peak, RRT 0.61 with respect to MFM [3, 6]: — | Degradant peak, RRT 0.71 with respect to MFM [3, 6]: — | Degradant peak, RRT 0.79 with respect to MFM [3, 6]: — | Degradant peak, RRT 1.07 with respect to MFM [3, 6]: — | Degradant peak, RRT 0.87* with respect to MFM [3, 6]: — | Degradant peak, RRT 0.96* with respect to MFM [3, 6]: detected (≥0.05% Peak Area; detected above the 0.05% cutoff) | Degradant peak, RRT 1.12* with respect to MFM [3, 6]: — | Degradant peak, RRT 0.61 with respect to MFM [3, 7]: — | Degradant peak, RRT 0.71 with respect to MFM [3, 7]: — | Degradant peak, RRT 0.79 with respect to MFM [3, 7]: — | Degradant peak, RRT 1.07 with respect to MFM [3, 7]: — | Degradant peak, RRT 0.87* with respect to MFM [3, 7]: — | Degradant peak, RRT 0.96* with respect to MFM [3, 7]: detected (≥0.05% Peak Area; detected above the 0.05% cutoff) | Degradant peak, RRT 1.12* with respect to MFM [3, 7]: — | Degradant peak, RRT 0.61 with respect to MFM [3, 8]: — | Degradant peak, RRT 0.71 with respect to MFM [3, 8]: — | Degradant peak, RRT 0.79 with respect to MFM [3, 8]: — | Degradant peak, RRT 1.07 with respect to MFM [3, 8]: — | Degradant peak, RRT 0.87* with respect to MFM [3, 8]: — | Degradant peak, RRT 0.96* with respect to MFM [3, 8]: — | Degradant peak, RRT 1.12* with respect to MFM [3, 8]: — | Actual Amount ([3]; Acid (0.1N HCl, 1 hour)): 240.289 µg/mL | Actual Amount ([3]; Base (0.1N NaOH, 1 hour)): 6.091 µg/mL | Actual Amount ([3]; Control): 254.279 µg/mL | Actual Amount ([3]; Heat (60° C./5 days)): 249.211 µg/mL | Actual Amount ([3]; Light (white light, 5 days)): 249.916 µg/mL | Actual Amount ([3]; Peroxide (3% H2O2, 1 hour)): 262.576 µg/mL | Degradant peak, RRT 0.61 with respect to MFM ([3]; neat material, 4° C. (Control)): — | Degradant peak, RRT 0.71 with respect to MFM ([3]; neat material, 4° C. (Control)): — | Degradant peak, RRT 0.79 with respect to MFM ([3]; neat material, 4° C. (Control)): — | Degradant peak, RRT 1.07 with respect to MFM ([3]; neat material, 4° C. (Control)): — | Degradant peak, RRT 0.87* with respect to MFM ([3]; neat material, 4° C. (Control)): — | Degradant peak, RRT 0.96* with respect to MFM ([3]; neat material, 4° C. (Control)): detected (≥0.05% Peak Area; detected above the 0.05% cutoff) | Degradant peak, RRT 1.12* with respect to MFM ([3]; neat material, 4° C. (Control)): —
